Results taken from patent US8846698B2, “Pyrrolo[2,3-d]pyrimidine tropomysin-related kinase inhibitors” (Pfizer Limited, priority 2011, dated 2014).

The compounds below were run against TRKA (Homo sapiens (Human), UniProt P04629) (assay: Isolated TRK enzyme assay (HTRF KinEASE-TK), TRKA). Conditions: read-out: Trka enzyme (IC50).
Assay type: biochemical

Sequence of TRKA (P04629 441-796): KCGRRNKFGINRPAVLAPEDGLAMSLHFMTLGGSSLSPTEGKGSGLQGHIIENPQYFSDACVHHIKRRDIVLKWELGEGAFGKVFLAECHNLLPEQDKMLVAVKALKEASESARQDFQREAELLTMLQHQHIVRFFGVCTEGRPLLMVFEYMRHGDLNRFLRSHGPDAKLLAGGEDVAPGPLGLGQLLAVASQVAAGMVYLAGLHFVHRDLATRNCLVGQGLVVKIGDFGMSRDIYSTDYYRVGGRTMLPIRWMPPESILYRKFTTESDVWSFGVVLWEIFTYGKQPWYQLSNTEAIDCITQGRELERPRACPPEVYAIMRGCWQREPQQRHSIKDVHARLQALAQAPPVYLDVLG

Row | Structure (SMILES) | IC50 [nM]
1 | CC(C)c1cn(CC(=O)Nc2cncc(C(=O)c3cn(C(C)C)c4ncncc34)c2)nn1 [Example 105, N-{5-[(7-isopropyl-7H-pyrrolo[2,3-d]pyrimidin-5-yl)carbonyl]pyridin-3-yl}-2-(4-isopropyl-1H-1,2,3-triazol-1-yl)acetamide] | 25.6
2 | CC(C)n1cc(C(=O)c2cncc(NC(=O)Cn3cc(C(F)(F)F)nn3)c2)c2cncnc21 [Example 106, N-{5-[(7-isopropyl-7H-pyrrolo[2,3-d]pyrimidin-5-yl)carbonyl]pyridin-3-yl}-2-[4-(trifluoromethyl)-1H-1,2,3-triazol-1-yl]acetamide] | 14.8
3 | CC(C)n1cc(C(=O)c2cncc(NC(=O)Cn3nc4ccccc4n3)c2)c2cncnc21 [Example 108, 2-(2H-benzotriazol-2-yl)-N-{5-[(7-isopropyl-7H-pyrrolo[2,3-d]pyrimidin-5-yl)carbonyl]pyridin-3-yl}acetamide] | 7.63
4 | Cc1[nH]c2c(F)cccc2c1CC(=O)Nc1cncc(C(=O)c2cn(C(C)C)c3ncncc23)c1 [Example 109, 2-(7-fluoro-2-methyl-1H-indol-3-yl)-N-{5-[(7-isopropyl-7H-pyrrolo[2,3-d]pyrimidin-5-yl)carbonyl]pyridin-3-yl}acetamide] | 65.1
5 | Cc1[nH]c2ccc(Cl)cc2c1CC(=O)Nc1cncc(C(=O)c2cn(C(C)C)c3ncncc23)c1 [Example 110, 2-(5-chloro-2-methyl-1H-indol-3-yl)-N-{5-[(7-isopropyl-7H-pyrrolo[2,3-d]pyrimidin-5-yl)carbonyl]pyridin-3-yl}acetamide] | 36.5
6 | CC(C)n1cc(C(=O)c2cncc(NC(=O)Cn3ccc4ccccc43)c2)c2cncnc21 [Example 111, 2-(1H-indol-1-yl)-N-{5-[(7-isopropyl-7H-pyrrolo[2,3-d]pyrimidin-5-yl)carbonyl]pyridin-3-yl}acetamide] | 46.2
7 | CC(C)n1ncc(CC(=O)Nc2cncc(C(=O)c3cn(C(C)C)c4ncncc34)c2)c1C(F)(F)F [Example 112, N-{5-[(7-isopropyl-7H-pyrrolo[2,3-d]pyrimidin-5-yl)carbonyl]pyridin-3-yl}-2-[1-isopropyl-5-(trifluoromethyl)-1H-pyrazol-4-yl]acetamide] | 57.8
8 | Cc1cc(C)n(CC(=O)Nc2cncc(C(=O)c3cn(C(C)C)c4ncncc34)c2)n1 [Example 115, 2-(3,5-dimethyl-1H-pyrazol-1-yl)-N-{5-[(7-isopropyl-7H-pyrrolo[2,3-d]pyrimidin-5-yl)carbonyl]pyridin-3-yl}acetamide] | 102
9 | COc1ccc2[nH]cc(CC(=O)Nc3cncc(C(=O)c4cn(C(C)C)c5ncncc45)c3)c2c1 [Example 117, N-{5-[(7-isopropyl-7H-pyrrolo[2,3-d]pyrimidin-5-yl)carbonyl]pyridin-3-yl}-2-(5-methoxy-1H-indol-3-yl)acetamide] | 68.4
10 | CC(C)n1cc(C(=O)c2cncc(NC(=O)Cn3nnc4cc(Cl)ccc43)c2)c2cncnc21 [Example 119, 2-(5-chloro-1H-benzotriazol-1-yl)-N-{5-[(7-isopropyl-7H-pyrrolo[2,3-d]pyrimidin-5-yl)carbonyl]pyridin-3-yl}acetamide] | 233
11 | CC(C)n1cc(C(=O)c2cncc(NC(=O)Cn3ccc(-c4cccs4)n3)c2)c2cncnc21 [Example 120, N-{5-[(7-isopropyl-7H-pyrrolo[2,3-d]pyrimidin-5-yl)carbonyl]pyridin-3-yl}-2-[3-(2-thienyl)-1H-pyrazol-1-yl]acetamide] | 53
12 | Cc1ccn2cc(CC(=O)Nc3cncc(C(=O)c4cn(C(C)C)c5ncncc45)c3)nc2n1 [Example 121, N-{5-[(7-isopropyl-7H-pyrrolo[2,3-d]pyrimidin-5-yl)carbonyl]pyridin-3-yl}-2-(7-methylimidazo[1,2-a]pyrimidin-2-yl)acetamide] | 5200
13 | Cc1nc(C)c2ncn(CC(=O)Nc3cncc(C(=O)c4cn(C(C)C)c5ncncc45)c3)c2n1 [Example 122, 2-(2,6-dimethyl-9H-purin-9-yl)-N-{5-[(7-isopropyl-7H-pyrrolo[2,3-d]pyrimidin-5-yl)carbonyl]pyridin-3-yl}acetamide] | 5840
14 | CC(C)n1cc(C(=O)c2cncc(NC(=O)Cn3ncc4ccc([N+](=O)[O-])cc43)c2)c2cncnc21 [Example 123, N-{5-[(7-isopropyl-7H-pyrrolo[2,3-d]pyrimidin-5-yl)carbonyl]pyridin-3-yl}-2-(6-nitro-1H-indazol-1-yl)acetamide] | 143
15 | CC(C)n1cc(C(=O)c2cncc(NC(=O)Cc3nn(C)c4ccc(Cl)cc34)c2)c2cncnc21 [Example 124, 2-(5-chloro-1-methyl-1H-indazol-3-yl)-N-{5-[(7-isopropyl-7H-pyrrolo[2,3-d]pyrimidin-5-yl)carbonyl]pyridin-3-yl}acetamide] | 244
16 | Cc1[nH]c2ccc(F)cc2c1CC(=O)Nc1cncc(C(=O)c2cn(C(C)C)c3ncncc23)c1 [Example 125, 2-(5-fluoro-2-methyl-1H-indol-3-yl)-N-{5-[(7-isopropyl-7H-pyrrolo[2,3-d]pyrimidin-5-yl)carbonyl]pyridin-3-yl}acetamide] | 148
17 | Cc1nc2ccccc2n1CC(=O)Nc1cncc(C(=O)c2cn(C(C)C)c3ncncc23)c1 [Example 127, N-{5-[(7-isopropyl-7H-pyrrolo[2,3-d]pyrimidin-5-yl)carbonyl]pyridin-3-yl}-2-(2-methyl-1H-benzimidazol-1-yl)acetamide] | 1330
18 | COc1ccc2c(ccn2CC(=O)Nc2cncc(C(=O)c3cn(C(C)C)c4ncncc34)c2)n1 [Example 129, N-{5-[(7-isopropyl-7H-pyrrolo[2,3-d]pyrimidin-5-yl)carbonyl]pyridin-3-yl}-2-(5-methoxy-1H-pyrrolo[3,2-b]pyridin-1-yl)acetamide] | 3860
19 | Cc1cccc2ncn(CC(=O)Nc3cncc(C(=O)c4cn(C(C)C)c5ncncc45)c3)c12 [Example 131, N-{5-[(7-isopropyl-7H-pyrrolo[2,3-d]pyrimidin-5-yl)carbonyl]pyridin-3-yl}-2-(7-methyl-1H-benzimidazol-1-yl)acetamide] | 831
20 | CC(C)n1cc(C(=O)c2cncc(NC(=O)Cn3cnc4ccccc43)c2)c2cncnc21 [Example 133, 2-(1H-benzimidazol-1-yl)-N-{5-[(7-isopropyl-7H-pyrrolo[2,3-d]pyrimidin-5-yl)carbonyl]pyridin-3-yl}acetamide] | 681
21 | CC(C)n1cc(C(=O)c2cncc(NC(=O)Cn3nnc4ccccc43)c2)c2cncnc21 [Example 135, 2-(1H-benzotriazol-1-yl)-N-{5-[(7-isopropyl-7H-pyrrolo[2,3-d]pyrimidin-5-yl)carbonyl]pyridin-3-yl}acetamide] | 312
22 | CC(C)n1cc(C(=O)c2cncc(NC(=O)Cc3cc(-c4ccccc4)c[nH]3)c2)c2cncnc21 [Example 137, N-{5-[(7-isopropyl-7H-pyrrolo[2,3-d]pyrimidin-5-yl)carbonyl]pyridin-3-yl}-2-(4-phenyl-1H-pyrrol-2-yl)acetamide] | 496

The next lines start with the values.

Row | IC50 [nM] | Structure (SMILES)
23 | 12.3 | CC(C)n1cc(C(=O)c2cncc(NC(=O)Cn3ncc4cccc(F)c43)c2)c2cncnc21 [Example 107, 2-(7-fluoro-1H-indazol-1-yl)-N-{5-[(7-isopropyl-7H-pyrrolo[2,3-d]pyrimidin-5-yl)carbonyl]pyridin-3-yl}acetamide]
24 | 300 | Cc1ccn(CC(=O)Nc2cncc(C(=O)c3cn(C(C)C)c4ncncc34)c2)n1 [Example 113, N-{5-[(7-isopropyl-7H-pyrrolo[2,3-d]pyrimidin-5-yl)carbonyl]pyridin-3-yl}-2-(3-methyl-1H-pyrazol-1-yl)acetamide]
25 | 976 | CC(C)n1cc(C(=O)c2cncc(NC(=O)Cn3cccn3)c2)c2cncnc21 [Example 114, N-{5-[(7-isopropyl-7H-pyrrolo[2,3-d]pyrimidin-5-yl)carbonyl]pyridin-3-yl}-2-(1H-pyrazol-1-yl)acetamide]
26 | 103 | Cc1[nH]c2ccccc2c1CC(=O)Nc1cncc(C(=O)c2cn(C(C)C)c3ncncc23)c1 [Example 116, N-{5-[(7-isopropyl-7H-pyrrolo[2,3-d]pyrimidin-5-yl)carbonyl]pyridin-3-yl}-2-(2-methyl-1H-indol-3-yl)acetamide]
27 | 2550 | CC(C)n1cc(C(=O)c2cncc(NC(=O)Cc3cccnc3)c2)c2cncnc21 [Example 118, N-{5-[(7-isopropyl-7H-pyrrolo[2,3-d]pyrimidin-5-yl)carbonyl]pyridin-3-yl}-2-pyridin-3-ylacetamide]
28 | 95.7 | CC(C)n1cc(C(=O)c2cncc(NC(=O)Cc3cn4cc(Cl)ccc4n3)c2)c2cncnc21 [Example 126, 2-(6-chloroimidazo[1,2-a]pyridin-2-yl)-N-{5-[(7-isopropyl-7H-pyrrolo[2,3-d]pyrimidin-5-yl)carbonyl]pyridin-3-yl}acetamide]
29 | 206 | CC(C)n1cc(C(=O)c2cncc(NC(=O)Cc3cn4ccccc4n3)c2)c2cncnc21 [Example 128, 2-imidazo[1,2-a]pyridin-2-yl-N-{5-[(7-isopropyl-7H-pyrrolo[2,3-d]pyrimidin-5-yl)carbonyl]pyridin-3-yl}acetamide]
30 | 284 | Cc1ccnn1CC(=O)Nc1cncc(C(=O)c2cn(C(C)C)c3ncncc23)c1 [Example 130, N-{5-[(7-isopropyl-7H-pyrrolo[2,3-d]pyrimidin-5-yl)carbonyl]pyridin-3-yl}-2-(5-methyl-1H-pyrazol-1-yl)acetamide]
31 | 131 | CC(C)n1cc(C(=O)c2cncc(NC(=O)Cc3c[nH]c4ccccc34)c2)c2cncnc21 [Example 132, 2-(1H-indol-3-yl)-N-{5-[(7-isopropyl-7H-pyrrolo[2,3-d]pyrimidin-5-yl)carbonyl]pyridin-3-yl}acetamide]
32 | 330 | Cc1cc(CC(=O)Nc2cncc(C(=O)c3cn(C(C)C)c4ncncc34)c2)[nH]n1 [Example 134, N-{5-[(7-isopropyl-7H-pyrrolo[2,3-d]pyrimidin-5-yl)carbonyl]pyridin-3-yl}-2-(3-methyl-1H-pyrazol-5-yl)acetamide]
33 | 334 | CC(C)n1cc(C(=O)c2cncc(NC(=O)Cc3cn(C)c4ccccc34)c2)c2cncnc21 [Example 136, N-{5-[(7-isopropyl-7H-pyrrolo[2,3-d]pyrimidin-5-yl)carbonyl]pyridin-3-yl}-2-(1-methyl-1H-indol-3-yl)acetamide]
